Test results reported in ChEMBL document CHEMBL3997816, “Discovery and characterization of [(cyclopentyl)ethyl]benzoic acid inhibitors of microsomal prostaglandin E synthase-1” (Bioorg Med Chem Lett, 2017).

Columns and labels:
Prostaglandin E synthase [1] = biological target: T1, Prostaglandin E synthase (Homo sapiens, UniProt O14684); assay: Inhibition of human mPGES1 expressed in HEK293 microsomes assessed as reduction in PGE2 production using PGH2 as substrate after 2.5 mins by LC-MS analysis
T1 sequence (O14684 whole entry): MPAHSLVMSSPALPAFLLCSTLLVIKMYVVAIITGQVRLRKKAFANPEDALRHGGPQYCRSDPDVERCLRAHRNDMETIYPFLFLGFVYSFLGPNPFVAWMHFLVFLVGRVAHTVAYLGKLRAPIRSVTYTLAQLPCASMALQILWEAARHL

[2] = biological target: T2, Prostaglandin E synthase (Homo sapiens) (UniProt O14684); assay: (§1) Inhibition of mPGES1 in human whole blood assessed as reduction in LPS-induced PGE2 production preincubated for 30 mins followed by LPS addition measured after 20 to 24 hrs by LC-MS analysis
T2 sequence (whole entry): T1 sequence (O14684 whole entry)

Prostaglandin E synthase [3] = biological target: T1, Prostaglandin E synthase; assay: as §1
[4] = Clearance in rat at 1 mg/kg, iv; type: ADME, organism-based; settings: in vivo
CYP2C9 = CYP2C9 (Homo sapiens, UniProt P11712); assay: Inhibition of CYP2C9 (unknown origin) in microsomes at 10 uM relative to control; type: ADME
CYP2C9, sequence (P11712 whole entry): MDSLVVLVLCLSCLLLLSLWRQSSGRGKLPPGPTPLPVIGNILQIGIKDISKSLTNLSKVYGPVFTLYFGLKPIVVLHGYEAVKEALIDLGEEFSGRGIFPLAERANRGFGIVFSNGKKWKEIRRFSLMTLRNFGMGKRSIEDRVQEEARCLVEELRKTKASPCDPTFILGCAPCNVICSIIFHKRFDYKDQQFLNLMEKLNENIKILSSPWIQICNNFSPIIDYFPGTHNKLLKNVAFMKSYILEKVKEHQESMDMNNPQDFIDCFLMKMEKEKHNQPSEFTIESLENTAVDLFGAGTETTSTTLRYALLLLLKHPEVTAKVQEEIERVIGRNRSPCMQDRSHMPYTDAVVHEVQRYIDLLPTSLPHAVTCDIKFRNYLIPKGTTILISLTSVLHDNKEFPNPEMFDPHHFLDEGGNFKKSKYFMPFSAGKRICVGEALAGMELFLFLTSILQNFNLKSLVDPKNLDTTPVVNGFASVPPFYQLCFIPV

[5] = biological target: T3, Prostaglandin G/H synthase 1 (Homo sapiens, UniProt P23219); assay: Inhibition of COX1 in human whole blood assessed as effect on LPS-induced TXB2 level preincubated for 30 mins followed by LPS addition measured after 20 to 24 hrs by LC-MS analysis
T3 sequence (P23219 whole entry): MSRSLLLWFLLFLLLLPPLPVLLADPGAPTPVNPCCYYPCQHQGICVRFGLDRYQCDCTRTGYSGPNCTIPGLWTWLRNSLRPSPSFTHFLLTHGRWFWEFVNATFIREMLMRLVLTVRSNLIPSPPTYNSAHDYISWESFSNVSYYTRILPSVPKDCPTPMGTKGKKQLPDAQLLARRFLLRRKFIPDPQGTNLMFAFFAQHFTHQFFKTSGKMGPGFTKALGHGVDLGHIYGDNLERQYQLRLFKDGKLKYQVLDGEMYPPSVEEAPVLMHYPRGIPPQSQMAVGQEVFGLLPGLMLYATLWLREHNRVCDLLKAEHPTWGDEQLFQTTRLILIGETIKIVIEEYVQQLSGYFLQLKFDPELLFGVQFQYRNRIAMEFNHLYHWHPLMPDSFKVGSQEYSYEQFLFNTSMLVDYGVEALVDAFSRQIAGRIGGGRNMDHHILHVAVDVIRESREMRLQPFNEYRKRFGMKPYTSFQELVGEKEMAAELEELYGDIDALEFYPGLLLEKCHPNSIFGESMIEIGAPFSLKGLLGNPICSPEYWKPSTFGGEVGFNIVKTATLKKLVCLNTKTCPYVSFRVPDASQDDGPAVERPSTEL

[6] = biological target: T3, Prostaglandin G/H synthase 1; assay: Inhibition of COX1 in human whole blood assessed as effect on LPS-induced PGF2alpha level preincubated for 30 mins followed by LPS addition measured after 20 to 24 hrs by LC-MS analysis
Prostaglandin E synthase [7] = biological target: T1, Prostaglandin E synthase; assay: Inhibition of mPGES1 in human A549 cells assessed as reduction in IL-1beta-induced PGE2 production preincubated for 30 mins followed by IL-1beta addition measured after 18 hrs by enzyme immunoassay; type: cell-based
[8] = biological target: T4, Prostaglandin G/H synthase 2 (Homo sapiens, UniProt P35354); assay: Inhibition of COX2 in human A549 cells assessed as reduction in IL-1beta-induced PGI2 production preincubated for 30 mins followed by IL-1beta addition measured after 18 hrs by enzyme immunoassay; type: cell-based; settings: a549, 18 h
T4 sequence (P35354 whole entry): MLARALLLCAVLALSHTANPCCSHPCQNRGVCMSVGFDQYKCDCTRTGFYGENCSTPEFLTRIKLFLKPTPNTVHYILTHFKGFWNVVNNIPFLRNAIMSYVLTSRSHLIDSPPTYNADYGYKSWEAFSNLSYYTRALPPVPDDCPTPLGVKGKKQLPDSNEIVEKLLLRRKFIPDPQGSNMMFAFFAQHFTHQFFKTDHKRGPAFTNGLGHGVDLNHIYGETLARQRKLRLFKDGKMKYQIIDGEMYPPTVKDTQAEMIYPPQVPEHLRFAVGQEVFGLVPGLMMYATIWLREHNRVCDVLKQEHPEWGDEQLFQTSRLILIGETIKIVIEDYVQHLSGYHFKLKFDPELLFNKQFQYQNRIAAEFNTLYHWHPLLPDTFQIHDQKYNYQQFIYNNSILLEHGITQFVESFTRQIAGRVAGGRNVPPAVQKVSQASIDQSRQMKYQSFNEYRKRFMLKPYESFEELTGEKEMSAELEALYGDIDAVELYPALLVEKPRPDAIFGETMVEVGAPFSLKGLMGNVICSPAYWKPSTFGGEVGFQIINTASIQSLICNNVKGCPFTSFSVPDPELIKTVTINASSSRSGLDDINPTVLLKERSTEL

[9] = biological target: T4, Prostaglandin G/H synthase 2; assay: Inhibition of COX2 in human A549 cells assessed as reduction in IL-1beta-induced PGI2 production up to 10 uM preincubated for 30 mins followed by IL-1beta addition measured after 18 hrs by enzyme immunoassay; type: cell-based; settings: a549, 18 h
[10] = biological target: T3, Prostaglandin G/H synthase 1; assay: Inhibition of COX1 in human whole blood assessed as effect on LPS-induced TXB2 level up to 10 uM preincubated for 30 mins followed by LPS addition measured after 20 to 24 hrs by LC-MS analysis
[11] = biological target: T3, Prostaglandin G/H synthase 1; assay: Inhibition of COX1 in human whole blood assessed as effect on LPS-induced PGF2alpha level up to 10 uM preincubated for 30 mins followed by LPS addition measured after 20 to 24 hrs by LC-MS analysis
[12] = biological target: T5, Prostaglandin G/H synthase 1 (Ovis aries, UniProt P05979); assay: Inhibition of ovine COX1 assessed as reduction in PGF2alpha production at 10 uM using arachidonic acid as substrate by colorimetric method; settings: sheep
T5 sequence (P05979 whole entry): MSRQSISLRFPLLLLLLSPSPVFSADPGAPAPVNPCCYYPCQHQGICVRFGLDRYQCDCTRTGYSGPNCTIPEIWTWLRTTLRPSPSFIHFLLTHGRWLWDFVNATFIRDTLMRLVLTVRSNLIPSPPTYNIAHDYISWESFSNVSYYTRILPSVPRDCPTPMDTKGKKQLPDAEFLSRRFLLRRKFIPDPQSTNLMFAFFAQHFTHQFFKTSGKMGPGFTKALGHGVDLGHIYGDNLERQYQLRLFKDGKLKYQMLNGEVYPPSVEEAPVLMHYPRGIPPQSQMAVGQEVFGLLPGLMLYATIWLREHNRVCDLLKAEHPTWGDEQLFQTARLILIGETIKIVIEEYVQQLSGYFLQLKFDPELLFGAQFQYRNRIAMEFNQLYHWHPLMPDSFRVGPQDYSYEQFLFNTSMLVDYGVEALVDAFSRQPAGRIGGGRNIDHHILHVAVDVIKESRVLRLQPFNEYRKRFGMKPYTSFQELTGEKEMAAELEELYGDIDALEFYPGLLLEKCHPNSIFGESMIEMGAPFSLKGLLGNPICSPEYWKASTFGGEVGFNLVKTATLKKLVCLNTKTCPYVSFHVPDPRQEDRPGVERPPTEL

[13] = biological target: T4, Prostaglandin G/H synthase 2; assay: Inhibition of human COX2 assessed as reduction in PGF2alpha production at 10 uM using arachidonic acid as substrate by colorimetric method
[14] = Selectivity index, ratio of compound effect for inhibition of human mPGES1 expressed in HEK293 microsomes to compound effect for inhibition of ovine COX1
Homo sapiens = species on record: Homo sapiens; assay: Selectivity index, ratio of compound effect for inhibition of human mPGES1 expressed in HEK293 microsomes to compound effect for inhibition of human COX2
[15] = biological target: Voltage-gated inwardly rectifying potassium channel KCNH2 (Homo sapiens, UniProt Q12809); assay: Inhibition of human ERG expressed in CHO cells at 10 uM by automated patch clamp method; type: cell-based
Voltage-gated inwardly rectifying potassium channel KCNH2, sequence (Q12809 whole entry): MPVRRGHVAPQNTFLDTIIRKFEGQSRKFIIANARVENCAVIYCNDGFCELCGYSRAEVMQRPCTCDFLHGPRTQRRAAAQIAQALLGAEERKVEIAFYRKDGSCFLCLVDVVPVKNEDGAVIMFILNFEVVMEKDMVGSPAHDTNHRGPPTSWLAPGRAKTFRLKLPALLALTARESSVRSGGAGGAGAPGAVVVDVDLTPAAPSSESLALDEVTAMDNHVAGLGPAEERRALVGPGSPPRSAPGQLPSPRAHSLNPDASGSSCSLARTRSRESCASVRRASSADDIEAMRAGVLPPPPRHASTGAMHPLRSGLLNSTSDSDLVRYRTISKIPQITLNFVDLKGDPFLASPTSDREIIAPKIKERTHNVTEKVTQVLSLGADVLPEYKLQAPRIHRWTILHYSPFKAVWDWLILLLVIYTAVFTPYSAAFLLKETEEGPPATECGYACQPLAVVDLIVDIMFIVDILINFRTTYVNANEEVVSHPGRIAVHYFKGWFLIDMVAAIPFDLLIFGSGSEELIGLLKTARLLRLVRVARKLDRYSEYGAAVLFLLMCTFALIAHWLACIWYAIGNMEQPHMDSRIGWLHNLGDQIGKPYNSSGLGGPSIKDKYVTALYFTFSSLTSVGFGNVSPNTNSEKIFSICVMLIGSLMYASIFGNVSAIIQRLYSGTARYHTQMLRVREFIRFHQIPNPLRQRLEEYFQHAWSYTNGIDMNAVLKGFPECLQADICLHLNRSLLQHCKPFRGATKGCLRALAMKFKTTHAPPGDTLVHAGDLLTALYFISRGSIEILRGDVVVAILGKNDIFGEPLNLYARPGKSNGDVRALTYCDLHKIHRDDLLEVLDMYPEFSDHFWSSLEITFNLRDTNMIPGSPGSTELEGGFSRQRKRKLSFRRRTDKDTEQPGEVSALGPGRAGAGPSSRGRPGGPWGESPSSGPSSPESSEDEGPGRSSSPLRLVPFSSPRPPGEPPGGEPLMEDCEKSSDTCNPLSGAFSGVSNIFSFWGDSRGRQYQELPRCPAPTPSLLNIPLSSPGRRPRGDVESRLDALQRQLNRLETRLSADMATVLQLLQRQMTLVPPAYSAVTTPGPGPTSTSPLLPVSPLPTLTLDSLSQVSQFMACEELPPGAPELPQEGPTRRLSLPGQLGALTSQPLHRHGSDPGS

[16] = Clearance in dog at 1 mg/kg, iv; type: ADME, organism-based, Canis lupus familiaris; settings: in vivo
[17] = Volume of distribution at steady state in rat at 1 mg/kg, iv; type: ADME, organism-based; settings: in vivo, read-out: Vdss
[18] = Volume of distribution at steady state in dog at 1 mg/kg, iv; type: ADME, organism-based, Canis lupus familiaris; settings: in vivo, read-out: Vdss
[19] = Cmax in rat at 5 mg/kg, po; type: ADME, organism-based; set-up: dose 5 mg/kg, route oral; settings: in vivo
[20] = Cmax in dog at 5 mg/kg, po; type: ADME, organism-based, Canis lupus familiaris; set-up: dose 5 mg/kg, route oral; settings: in vivo
[21] = Oral bioavailability in rat at 5 mg/kg; type: ADME, organism-based; settings: in vivo
Rattus norvegicus = assay: Time at which plasma concentration stays above human whole blood IC80 level in rat at 5 mg/kg, po administered as single dose
Canis familiaris = assay: Time at which plasma concentration stays above human whole blood IC80 level in dog at 3 mg/kg, po administered as single dose; set-up: species or system Canis lupus familiaris
[22] = Oral bioavailability in dog at 3 mg/kg; settings: in vivo

Structure (SMILES) | IC50 (Prostaglandin E synthase [1]) [nM] | IC80 [2] [nM] | IC50 (Prostaglandin E synthase [3]) [nM] | clearance [4] [mL/min/kg] | inhibition at 10 µM (CYP2C9) [%] | further results
O=C(O)c1ccc(Cl)cc1OC[C@@H]1CCC[C@@H]1NC(=O)C1CCN(c2ccc(C(F)(F)F)cc2)CC1 | 2 | 25 | 8 | 57 | 39 | –
O=C(O)c1ccc(Cl)cc1CC[C@@H]1CCC[C@@H]1NC(=O)C1CCN(c2ccc(C(F)(F)F)cc2)CC1 | 1 | 5 | 1 | 16 | 51 | –
O=C(O)c1cccnc1CC[C@@H]1CCC[C@@H]1NC(=O)C1CCN(c2ccc(C(F)(F)F)cc2)CC1 | 6 | 146 | 21 | 38 | – | –
O=C(O)c1ccccc1CC[C@@H]1CCC[C@@H]1NC(=O)C1CCN(c2ccc(C(F)(F)F)cn2)CC1 | 2 | 267 | 34 | 6 | 22 | –
O=C(O)c1ccc(Cl)cc1NC[C@@H]1CCC[C@@H]1NC(=O)C1CCN(c2ccc(C(F)(F)F)cc2)CC1 | 4 | 8 | 3 | 40 | 71 | inhibition (INH) [5]: Not Active; inhibition (INH) [6]: Not Active; IC50 (Prostaglandin E synthase [7]): 3.5 nM; inhibition (INH) [8]: Not Active
CC(C)(C)C(=O)N[C@H]1CCC[C@H]1CNc1cc(Cl)ccc1C(=O)O | 43 | – | 8910 | – | – | –
O=C(O)c1ccc(Cl)cc1NC[C@@H]1CCC[C@@H]1NC(=O)C1CCN(c2ccccc2)CC1 | 2 | 1370 | 81 | 81 | 46 | inhibition (INH) [5]: Not Active; inhibition (INH) [6]: Not Active; IC50 (Prostaglandin E synthase [7]): 21 nM; inhibition (INH) [8]: Not Active
Cc1cccc2ccc(N3CCC(C(=O)N[C@H]4CCC[C@H]4CCc4ccccc4C(=O)O)CC3)nc12 | 1 | 24 | 6 | 31 | 14 | inhibition (INH) [9]: Not Active; inhibition (INH) [10]: Not Active; inhibition (INH) [11]: Not Active; inhibition (INH) [12]: Not Active; inhibition (INH) [13]: Not Active; Selectivity Index [14]: > 10000; Selectivity Index (Homo sapiens): > 10000; inhibition (INH) [15]: Not Active; clearance [16]: 6.5 mL/min/kg; Vd [17]: 4.8 L/kg; Vd [18]: 1.2 L/kg; Cmax [19]: 530 nM; Cmax [20]: 4000 nM; bioavailability [21]: 52%; Time (Rattus norvegicus): >12 h; Time (Canis familiaris): 24 h; bioavailability [22]: 68%

Now from value to compound, other results behind:

IC50 (Prostaglandin E synthase [1]) [nM] | IC80 [2] [nM] | IC50 (Prostaglandin E synthase [3]) [nM] | clearance [4] [mL/min/kg] | inhibition at 10 µM (CYP2C9) [%] | Structure (SMILES) | further results
1 | 43 | 10 | 17 | 32 | O=C(O)c1ccccc1CC[C@@H]1CCC[C@@H]1NC(=O)C1CCN(c2ccc(OC(F)(F)F)cc2)CC1 | –
1 | 10 | 3 | 9 | 56 | Cc1ccc(C(=O)O)c(CC[C@@H]2CCC[C@@H]2NC(=O)C2CCN(c3ccc(C(F)(F)F)cc3)CC2)c1 | –
2 | 40 | 5 | 5 | 5 | O=C(O)c1ccccc1CC[C@@H]1CCC[C@@H]1NC(=O)C1CCN(c2ccc(C(F)(F)F)cc2)CC1 | –
1 | 41 | 6 | 12 | 40 | O=C(O)c1ccc(F)cc1CC[C@@H]1CCC[C@@H]1NC(=O)C1CCN(c2ccc(C(F)(F)F)cc2)CC1 | –
